The experiment has as its target Mcm2–7 complex. Kind of experiment: thermal shift assay. In kind it is binding, Saccharomyces cerevisiae.

The structures appear in SMILES notation.

As to `CNC(=O)c1cc2c(cn1)[nH]c1ccccc12` [CMA, β-carboline-3-carboxylic acid N-methylamide], the Kd (as a rule, the concentration at which binding is half-saturated) amounted to 119 µM.

These data come from paper PMC9196137 (SLAS discovery : advancing life sciences R & D, 2022).
